According to patent US10976318B2, “Method of treating cancer using a caspase-4 inhibitor” (IMMUNEPHARMA S.R.L., priority 2014, dated 2021):
*: point of attachment. CH2Cl = ClC*

Tested on: lung tumor lesion in C57Bl/6 mice treated with NMU
Assay: Murine model of lung carcinoma induced by intratracheal NMU; tumor lesion area/total lung area
Format: in vivo, mouse
Conditions: C57Bl/6 mice exposed to NMU, caspase-1 inhibitor i.p.; *p<0.05, **p<0.01; FIG. 6C
Procedure: Murine Model of Lung Carcinoma.
C57Bl/6 mice (Harlan Laboratories, Italy) and 129Sv mice, and caspase-1 and 11 knockout mice (Charles River Laboratories, Italy) (females of 6-8 weeks) were subjected to intratracheal (i.t.) instillation of a carcinogen, N-nitroso-N-methyl-urea (NMU), having alkylating and mutagenic activities (Damiani et al., 2008). NMU was administered three times every 7 days, according to the following administration schedule and dosage: day 0, 50 μg/mouse; day 8, 10 μg/mouse and day 15, 10 μg/mouse (FIG. 1). In some experiments, an anti-IL-1α antibody (Ab) (2 μg/[…] i.p.; eBioscience, USA), or a caspase-1 inhibitor (Ac-Y-VAD-cmk: 10 ug/mouse i.p., Sigma Aldrich, USA), or an anti-caspase-11 antibody (10 ug/mouse, i.p.; Santa Cruz, USA) were administered to C57Bl/6 mice treated with NMU. The animals were sacrificed at different time points (3-7-30 days from the first NMU administration), according to the scheme shown in FIG. 1. The tumor lesion was expressed as the tumor lesion area/total lung area ratio. […]
The results are expressed as mean±SEM. The differences between the various groups were statistically analyzed using One Way ANOVA analysis and/or Student's t test, as appropriate. […]

Substance	tumor lesion, effect in words
Ac-Tyr-Val-Ala-Asp-CHO (Ac-YVAD-aldehyde) [y-VAD-CHO, N. sc-3069]	reduced
Ac-Tyr-Val-Ala-Asp-Chloromethylketone (Ac-YVAD-CH2Cl) [Ac-Y-VAD-cmk, N. SML-0429]	reduced
